# Data reported in article PMC10883292, “Estrogen Receptor Mutations as Novel Targets for Immunotherapy in Metastatic Estrogen Receptor–positive Breast Cancer” (Cancer Research Communications, 2024).
# Tests used:
# HLA-A*0201 on T2 cells = biological target: T1, HLA-A*0201 on T2 cells (Homo sapiens, UniProt P04439, D140Y/D185E/D98H/E176V/E277Q/G131W/G231S/I119V/I121R/I166T/I218V/L300P/L318F/N151K/N90K/P208A/P217A/Q86G/Q94H/R138H/R169H/T345S); assay: T2 dissociation (stability) assay; type: cell-based; conditions: peptide:HLA-A*0201 dissociation; T2 cells pulsed 8–12 hours, washed; MFI normalized to time 0; linear regression; three independent experiments in triplicate
# T1 construct: T2 cells were pulsed with indicated peptides for 8–12 hours, washed, and then stained for surface HLA-A*0201 expression; host or cells: T2 cells
# Description: T2 binding assays were performed as described previously ([23]). […] Surface expression of HLA-A*0201 in T2 cells was determined by staining with an anti-HLA-A2 mAb (BB7.2, BD Biosciences). The median fluorescence intensity (MFI) was measured using a FACSCando II (BD Biosciences). The peptide half-life was calculated by linear regression using GraphPad Prism software.
# FIGURE 2 Kinetics of peptide: HLA-A*0201 dissociation. T2 cells were pulsed with indicated peptides for 8–12 hours, washed, and then stained for surface HLA-A*0201 expression at indicated timepoints for wildtype-1 and E380Q (A), wildtype-2 and Y537S (B), wildtype-2 and D538G (C). MFI for each timepoint was normalized to initial staining (time = 0). Linear regression analysis was used to plot lines of best fit for each individual peptide, and half-life for each peptide is shown in Table 2. Data are pooled from three independent experiments performed in triplicate.
# [1] = tested on: peptide-specific CD8+ T cells from PBMC of healthy female HLA-A2 positive donors; assay: Peptide-specific CTL tetramer assay and expansion; type: cell-based, human; conditions: for tetramer expansion: post- vs pre-expansion, in words; for average frequency fold change (vs. pre-expansion): after CTL expansion with peptide-pulsed DCs, IL7, IL2; for average frequency fold change (vs. pre-expansion) / average frequency of peptide-specific CTLs in peripheral blood: tetramer staining; for average frequency of peptide-specific CTLs in peripheral blood: pre-expansion, PBMC of healthy females, 3 donors
# Excerpt: Healthy donor peripheral blood samples were purchased from the local blood bank and used under an MD Anderson Cancer Center Institutional Review Board–approved protocol. Because the samples came from deidentified healthy donors, the Institutional Review Board determined that informed consent was not required. Peripheral blood mononuclear cells (PBMC) were isolated from buffy coats of healthy female HLA-A2 positive donors by Ficoll/Histopaque (Sigma-Aldrich) density gradient centrifugation and split equally into two groups. One group of PBMC was used to assess the pre-expansion frequency of the peptide-specific CTLs. These cells were immediately stained with FITC-conjugated anti-CD3 and APC-H7–conjugated anti-CD8 to select for CD8^+ T cells. Pacific blue (PB)-conjugated anti-CD4, anti-CD14, anti-CD16, anti-CD19, and anti-CD56 (BD Biosciences) were used as a dump gate to gate out other immune cell types; PE-conjugated mutant peptide and APC-conjugated wild-type peptide tetramers (Baylor College of Medicine, MHC tetramer core, Houston, TX) were used to enumerate the percentage of peptide-specific CD8^+ T cells present in healthy PBMCs. The analysis was performed using flow cytometry.
# The second group of donor PBMC was used to assess the expansion potential of the peptide-specific CTLs. To expand peptide-specific CTLs, dendritic cells (DC) were matured from adherent monocytes by the addition of GMCSF (100 ng/mL, Sanoti), IL4 (50 ng/mL, rhIL4, Tonbo Biosciences), and TNFα (25 ng/mL, BioLegend). Lymphocytes from the same donor were separated and cocultured with 40 µg/mL of mutant and wild-type peptides. After 5 days, DCs were harvested and cocultured with autologous CD8^+ T cells for an additional 7 days. The cocultured cells were supplemented with IL7 (10 ng/mL; BioLegend) for CTL activation and IL2 (25 ng/mL; R&D Systems) for CTL expansion. After CTL activation and expansion, cells were stained and analyzed as described above.
# FIGURE 3 Peptide-specific expansion of CD8^+ T cells. PBMCs from healthy donors were isolated and expanded as described in the Materials and Methods. Tetramer staining was performed pre- and post-expansion to quantify frequencies of peptide-specific CD8^+ T cells. A, Wildtype-1, E380Q. B, Wildtype-2, Y537S, D538G. Data represents three independent experiments, from 3 separate donors, performed in triplicate. Statistical significance was determined via comparison of pre-expansion versus post-expansion CD8^+tetramer^+ population using unpaired Student t test. *, P < 0.05.
# peptide-pulsed T2 cells = assay: Calcein-AM release cytotoxicity assay, peptide-pulsed T2 cells; type: cell-based, human; conditions: 20:1 effector:target ratio, 4-hour calcein-AM release, T2 cells pulsed with corresponding peptide, peptide-specific CTLs from healthy female donors
# Description: Healthy donor lymphocytes and DCs were cocultured in 6-well plates supplemented with IL7 and IL2, as described above. On days 12–14, cultured peptide-specific CTLs were harvested and peptide-specific cytotoxicity was assessed using a standard 4-hour Calcein-AM (Sigma-Aldrich) release assay as described previously ([24]). Briefly, target cells, including T2 cells pulsed with mutant and wild-type peptides, were labeled with 5 µg/mL calcein-AM for 15 minutes in the dark. After two washes, cells were adjusted to 2 × 10^5/mL, plated on a Terasaki plate, and cocultured with peptide-specific CTLs at effector:target ratios of 20:1 and 5:1. After 4 hours of incubation, Trypan blue was added to quench the reaction. The fluorescence was measured using a Cytation 3 Imaging Reader (BioTek). The percentage of specific cell lysis was calculated using the following formula: […]
# T2 cells were pulsed with corresponding peptides and labeled with calcein-AM. Cytotoxicity was determined by a standard calcein-AM release assay. Wildtype-1 (A), E380Q (B), Wildtype-2 (C), Y537S (D), D538G (E). Non-pulsed T2 cells were used as negative controls. Statistical significance was determined via unpaired Student t test. Data represent the average of three to four experiments from separate healthy female donors run in triplicate. *, P < 0.05; ***, P < 0.001.
Sequence,Half-Life (HLA-A*0201 on T2 cells),tetramer expansion [1],specific cytotoxicity (peptide-pulsed T2 cells),average frequency fold change (vs. pre-expansion) [1],average frequency of peptide-specific CTLs in peripheral blood [1]
"PLSDLLLEM [Y537S, ESR1-derived nonameric peptide with Y537S mutation]",6.2 h,,30.03%,4.85 fold,0.18%
"PLYGLLLEM [D538G, ESR1-derived nonameric peptide with D538G mutation]",6.0 h,,30.48%,4.31 fold,0.17%

# Further lines, with some results ahead:
Half-Life (HLA-A*0201 on T2 cells),Sequence,tetramer expansion [1],specific cytotoxicity (peptide-pulsed T2 cells),average frequency fold change (vs. pre-expansion) [1],average frequency of peptide-specific CTLs in peripheral blood [1]
5.4 h,"LLECAWLEI [Wildtype-1, wild-type ESR1-derived nonameric peptide associated with E380Q]",did not show tetramer expansion,25.99%,,
7.2 h,"LLQCAWLEI [E380Q, ESR1-derived nonameric peptide with E380Q mutation]",,28.45%,5.77 fold,0.03%
5.9 h,"PLYDLLLEM [Wildtype-2, wild-type ESR1-derived nonameric peptide associated with Y537S and D538G]",modest expansion,13.27%,,
